Experiment [1] deals with 3WJ (DNA, junction) CGGAACGGCACTCG/CGAGTGCAGCGTGG/CCACGCTCGTTCCG
The experiment can be described thus: PAGE. Particulars: Na+ 50 mM (NaCl), 1X TB, 37 °C 1 h incubation.

Experiment [2] concerns 4WJ-18 (DNA, junction) GCTAGCTGATACGCTACG/CGTAGCGTACGTTGGTGC/GCACCAACGCGTCACTCC/GGAGTGACGTCAGCTAGC
The experiment can be described thus: PAGE. The conditions noted are these: Na+ 50 mM (NaCl); 1X TB, 37 °C 1 h incubation; 0.25 to 5 equiv; compound induces junction assembly.

For experiment [3], the system named is FAM-labelled 4WJ-18 (DNA, junction) GCTAGCTGATACGCTACG/CGTAGCGTACGTTGGTGC/GCACCAACGCGTCACTCC/GGAGTGACGTCAGCTAGC
The experiment can be described thus: PAGE competition, FAM fluorescence. The conditions noted are these: Na+ 50 mM (NaCl); 1X TB, 37 °C 1 h; 1 equivalent Pt-BIMA; competitor unlabelled 4WJ-18, Y fork, dsDNA, 3WJ.

For experiment [4], the system named is 4WJ-22 (DNA, junction) GCCTAGCATGATACTGCTACCG/CGGTAGCAGTACCGTTGGTGGC/GCCACCAACGGCGTCAACTGCC/GGCAGTTGACGTCATGCTAGGC
The experiment can be described thus: PAGE gel shift. The conditions noted are these: Na+ 50 mM (NaCl); 1X TB. On the technique in general: A gel shift assay detects complexes by their altered migration in electrophoresis.

Consider `[Pd+2].[Pd+2].c1ccc2c(c1)ncn2Cc1c2ccccc2c(Cn2cnc3ccccc32)c2ccccc12.c1ccc2c(c1)ncn2Cc1c2ccccc2c(Cn2cnc3ccccc32)c2ccccc12.c1ccc2c(c1)ncn2Cc1c2ccccc2c(Cn2cnc3ccccc32)c2ccccc12.c1ccc2c(c1)ncn2Cc1c2ccccc2c(Cn2cnc3ccccc32)c2ccccc12`, for which the binding result in experiment [1] (0.25 to 5 equiv) and in experiment [2] was “yes” throughout.

For the compound `C(=Nc1ccc(Cc2ccc(N=Cc3ccccn3)cc2)cc1)c1ccccn1.C(=Nc1ccc(Cc2ccc(N=Cc3ccccn3)cc2)cc1)c1ccccn1.C(=Nc1ccc(Cc2ccc(N=Cc3ccccn3)cc2)cc1)c1ccccn1.[Ni+2].[Ni+2]`, the binding entry in experiment [1] (control lane) was “yes”.

For the compound `[Pt+2].[Pt+2].c1ccc2c(c1)ncn2Cc1c2ccccc2c(Cn2cnc3ccccc32)c2ccccc12.c1ccc2c(c1)ncn2Cc1c2ccccc2c(Cn2cnc3ccccc32)c2ccccc12.c1ccc2c(c1)ncn2Cc1c2ccccc2c(Cn2cnc3ccccc32)c2ccccc12.c1ccc2c(c1)ncn2Cc1c2ccccc2c(Cn2cnc3ccccc32)c2ccccc12`, the binding entry in experiment [3], in experiment [1] (0.25 to 5 equiv), in experiment [4] and in experiment [2] was “yes” throughout.

For the origin of these results see publication PMC12184311 (2025).
